Test results published in patent US6121277A, “Camptothecin-skeleton compounds isolated from Mappia foetida and the use thereof as syntones for novel medicaments as well as therapeutical agents” (Indena S.p.A., priority 1996, dated 2000).
Where two headings read alike, the source gives them in different places.

Tests used:
HCT116/VM46 = assay: Cytotoxic activity against the same line resistant to the most common chemotherapeutics (HCT116/VM46); format: cell-based; settings: Homo sapiens
Description: (§1) Compounds 1 have cytotoxic activity against tumor cell lines. For example, Table 1 reports the cytotoxic activity against a colon carcinoma line (HCT116) and against the same line resistant to the most common chemotherapeutics (HCT116/VM46).

HCT116 = assay: Cytotoxic activity against colon carcinoma line HCT116; format: cell-based; settings: Homo sapiens
Description: as §1

Row | Compound | IC50 (HCT116/VM46; HCT-116/VM46, HCT116/VM46, resistant to the most common chemotherapeutics, read-out: IC50 Line HCT116/VM46) [nM] | IC50 (HCT116; HCT-116, colon carcinoma line HCT116, read-out: IC50 Line HCT116) [nM] | IC50 (HCT116/VM46; HCT-116/VM46, read-out: IC50 Line HCT116/VM46) [nM] | IC50 (HCT116; HCT-116, read-out: IC50 Line HCT116) [nM]
1 | CCC(O)(C(=O)O)c1cc2n(c(=O)c1COC(C)=O)Cc1cc3ccccc3nc1-2 (stereo not shown) [17-Acetyl-camptothecinic acid, 17-acetyl-camptothecinic acid] | 25.3 | 8.2 | – | –
2 | CC[C@@]1(O)C(=O)OCc2c1cc1n(c2=O)Cc2cc3ccccc3nc2-1 [Camptothecin, camptothecin] | – | – | 96.7 | 10.5
